What is called inhibition is the percentage by which the read-out fell short of the control. A low value points to little suppression.

These results are taken from article PMC6934184, “Selective DNA-PKcs inhibition extends the therapeutic index of localized radiotherapy and chemotherapy” (The Journal of Clinical Investigation, 2019).

This assay deals with T1, MAPK10 (JNK3) (Homo sapiens, UniProt P53779).
T1 construct: purchased Thermo Fisher Scientific (Life Technologies) SelectScreen
Briefly: SelectScreen Z'LYTE. The assay is classed as biochemical. To be noted: ATP 100 µM. A digest of the protocol: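 Percent values come from Thermo SelectScreen profiling of NU5455, combining activity and binding assays. CSF1R was run in Z'LYTE format at Km app ATP, and CAMK1 in Adapta format with ATP listed at 10.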

T1 sequence (P53779 whole entry): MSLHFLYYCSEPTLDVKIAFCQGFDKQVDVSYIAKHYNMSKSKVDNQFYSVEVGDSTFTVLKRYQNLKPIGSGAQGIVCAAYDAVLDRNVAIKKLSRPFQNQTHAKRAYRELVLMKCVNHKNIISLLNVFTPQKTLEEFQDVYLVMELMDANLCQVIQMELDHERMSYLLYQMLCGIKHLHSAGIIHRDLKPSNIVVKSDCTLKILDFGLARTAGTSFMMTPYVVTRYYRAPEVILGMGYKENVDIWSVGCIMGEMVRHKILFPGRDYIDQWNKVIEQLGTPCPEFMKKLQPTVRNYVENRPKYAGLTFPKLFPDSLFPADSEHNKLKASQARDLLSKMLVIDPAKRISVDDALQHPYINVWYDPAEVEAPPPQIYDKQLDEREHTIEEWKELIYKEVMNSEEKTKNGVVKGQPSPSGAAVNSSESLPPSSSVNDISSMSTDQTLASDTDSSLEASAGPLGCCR

Consider `CN(C(=O)CN1CCOCC1)c1ccc2sc3c(-c4cccc5c(=O)cc(N6CC7CCC(C6)O7)oc45)cccc3c2c1` [NU5455], for which at 1 µM the inhibition was 9%.
